The results in this text go back to patent US10639287B2, “Compounds for the treatment of mitochondrial diseases” (UNIVERSITE PARIS-SUD, priority 2014, dated 2020).

The test deals with wild-type Mip1 or mutated Mip1G651S yeast protein. The test is described as follows: Amount of Mip1 proteins in mitochondria-enriched extracts (SDS/PAGE, western blot). To be noted: 32 μM vs DMSO. The format is cell-based, Saccharomyces cerevisiae. The method, then: The analysis of the effect of clofilium tosylate on the amount of wild-type or mutated Mip1 proteins was carried out on cell extracts enriched in mitochondria. In order to visualise the expression of the Mip1 and Mip1G651S proteins, the sequence encoding three HA epitopes was cloned in 3′ and in phase with the coding sequence of Mip1 and Mip1G651S.
The yeast cells were cultured in selective medium (SC-TRP, 2% ethanol) overnight. Then, the cells were seeded at an initial optical density (DO600) of 0.05 in 100 mL of YPE (1% Yeast Extract, 0.5% Bacto Peptone, 2% Ethanol) supplemented either by DMSO or by 32 μM clofilium tosylate at 28° C. with stirring until a DO600 between 3 and 4 was achieved. The cells were centrifuged at 3000 g for 5 min and washed with water. The isolation of the fraction enriched in mitochondria and protein extraction of this fraction were carried out according to the protocol described by Hoffman et al., 2009 (Hofmann, L., Saunier, R., Cossard, R., Esposito, M., Rinaldi, T. and Delahodde, A. (2009) A non-proteolytic proteasome activity controls organelle fission in yeast. J. Cell. Sci., 122, 3673-3682).
The protein extracts of the fractions enriched in mitochondria were analysed by SDS/PAGE gel electrophoresis (6% for the analysis of the proteins Mip1-HA and Mip1G651S-HA and 10% for the analysis of Cox2 mitochondrial proteins (encoded by mtDNA) and porin). […]
A general note: A western blot detects proteins with antibodies after separation by electrophoresis.

As for `CCCCCCC[N+](CC)(CC)CCCCc1ccc(Cl)cc1.Cc1ccc(S(=O)(=O)[O-])cc1` [clofilium tosylate], the “amount of wild-type Mip1 or mutated Mip1G651S yeast protein” value was “increased”.
